Experimental data reported in US20250065017A1, “Fractionating Extracellular Matrix to Modulate Bioactivity and the Host Response” (University of Pittsburgh - Of the Commonwealth System of …, priority 2014, published 2025).

Legend:
[1] = tested on: brain derived microglia; assay: PGE2 secretion in primary microglia; assay type: cell-based, rat; conditions: UBM hydrogel 0.5 mg/mL 48 hours; inhibitor pre-treatment 1 hour
Procedure: Primary microglia from rats were obtained from postnatal day 3 rat pup brains as previously described ([…], Xiao X, Hart RP, Schwartz M. Protective autoimmunity: interferon-gamma enables microglia to remove glutamate without evoking inflammatory mediators. J Neurochem 2005;92(5):997-1009). Whole brains from postnatal day 3 Sprague Dawley rat pups (Charles River) were harvested and minced after removal of the brain stem, olfactory bulbs, and meninges. Tissue was digested for 15 min in 0.25% trypsin/EDTA at 37° C. […] The suspension was centrifuged, diluted in culture media (DMEM/F12, 10% FBS, 2 mM L-glutamine, 1% penicillin/streptomycin), and grown to confluence at 37° C./5% CO2. Culture media was replaced every 2-3 days. At day 11-12 in vitro, enriched microglia were obtained by mechanical agitation (orbital shaker, 150 rpm, 37 C) for 2 hours. The media was collected after the shake-off step and centrifuged (1400 rpm for 5 minutes). The cell pellet was resuspended in culture media (RPMI 1640, 10% FBS, 1 mM L-glutamine, 1 mM sodium pyruvate, 50 μM beta-mercaptoethanol, 1% penicillin and streptomycin) and cells were plated at a density of 500,000/mL. […] Secreted factor concentrations in the culture supernatants were determined using commercially available ELISA kits (PGE2, PGF2α, ENZO Life Sciences) and IL-1RA (R&D Systems)) according to the manufacturer's instructions.

[2] = tested on: Sprague Dawley rats; assay: Rat skeletal muscle injury model: macrophage phenotype immunolabeling; assay type: in vivo
Procedure: An established rodent skeletal muscle injury model was used to evaluate the effect of the COX1/2 inhibitor, Aspirin, on the ECM scaffold mediated constructive remodeling response. Briefly, three days prior to the surgical procedure, animals were randomly assigned to either the Aspirin treated (3 mg/mL Aspirin in drinking water) or control (vehicle) group. Bilateral 1.5 cm×1.5 cm partial thickness defects were created in the abdominal musculature. A size-matched pre-cast UBM hydrogel and an overlying 2×2 cm single layer sheet of UBM was then placed in the muscle defect area. The remodeling response was evaluated following 3, 7, 14, and 35 days by quantitative histomorphologic metrics (Wolf M T, Carruthers […], Crapo P M, Huber A, Burnsed O A, Londono R, Johnson […] and others. Polypropylene surgical mesh coated with extracellular matrix mitigates the host foreign body response. J Biomed Mater Res A 2013 and Wolf […], Brennan-Pierce E P, Johnson S A, Carruthers […] hydrogel derived from decellularized dermal extracellular matrix. Biomaterials 2012;33(29):7028-38), including characterization of macrophage phenotype and neo tissue deposition. Thirty-two female Sprague Dawley rats (350-400 g at implantation) were purchased from Harlan Laboratories. Rats were housed on a 12 hour light-dark cycle and fed standard laboratory chow and water ad libitum. Animals were randomly assigned to either the Aspirin treated or control (vehicle) group. Three days prior to surgery, animals in the Aspirin group had their drinking water supplemented with 3 mg/mL Aspirin which was continued throughout the experimental time course. […] Salicylates in whole blood were determined using the Salicylates Detection Kit from Neogen according to the manufacturer's instructions. […] CD206 and CD86: Cellular expression of markers of macrophage polarization (CD206 and CD86) were determined by immunolabeling using previously described methods ([…], Londono […], Carruthers […]. Preparation and characterization of a biologic scaffold from esophageal mucosa. Biomaterials 2013;34(28):6729-37). […]

[3] = tested on: THP1 macrophage-like cells; assay: COX2 expression by western blot; assay type: cell-based, human; conditions: Aspirin 200 μM with UBM hydrogel 0.5 mg/mL; 4, 8, 24 hours
Procedure: THP-1 human monocytes were obtained from the American Tissue Culture Collection (ATCC, Manassas, VA) and maintained in RPMI, 10% FBS, 1% penicillin/streptomycin, 2 mM L-glutamine, and 1 mM sodium pyruvate in a humidified atmosphere at 37° C. with 5% CO2. For experiments, 500,000 THP-1 cells/mL were plated with 320 nM phorbol 12-myristate 13-acetate (PMA) for 24 hours to induce differentiation into macrophages. Adherent macrophages were washed in PBS and placed in fresh media, followed by a 24 hour incubation to acquiesce.
Cells were then treated with UBM hydrogel for 4, 8, or 24 hours. At the specified time points, cells were washed extensively with 1× PBS and lysis buffer (50 mM Tris, 20 mM NaCl, 1% Triton X-100) was added. Cells were mechanically removed from the culture dish, transferred to centrifuge tubes and incubated on ice for 10 minutes. Lysates were spun down at 14000 rpm for 20 minutes at 4° C. to remove any debris. The clarified lysate was stored at −80° C. Lysates were diluted 1:1 in 2× Laemmli Sample Buffer (Bio-Rad, Hercules, CA) and boiled at 95° C. for 5 minutes. Samples were then resolved on 9% SDS-PAGE gels (National Diagnostics) and transferred to polyvinyldifluoride (PVDF, Millipore) membranes. Membranes were blocked with 1:1 Odyssey Blocking Buffer:1×PBS (Licor) overnight at 4° C. […]

[4] = vs non-Aspirin treated animals throughout the time course

CC(=O)Oc1ccccc1C(=O)O [Aspirin]
PGE2 production [1]: reduced PGE2 production to baseline levels
M2:M1 ratio (CD68+CD206+ to CD68+CD86+ cells) ([2]; main effect for treatment, UBM implant): reduction in the M2:M1 ratio
M1 (CD86+) macrophages [2, 4]: increase in M1 (CD86+) macrophages
M2 (CD206+) macrophages [2, 4]: reduction in M2 (CD206+)
change in COX2 expression [3]: did not cause any changes in COX2 expression
